Source: ChEMBL document CHEMBL2040848, “Synthesis and bioactivity evaluation of rhodanine derivatives as potential anti-bacterial agents” (2012)

What was measured:
Type in all cases: functional
Staphylococcus aureus [1] = test: Antibacterial activity against Staphylococcus aureus KCTC 4220 after 24 hrs by two-fold serial dilution method; details: KCTC 4220, 24 h
Staphylococcus aureus [2] = test: Antibacterial activity against Staphylococcus aureus KCTC 209 after 24 hrs by two-fold serial dilution method; details: KCTC 209, 24 h
Staphylococcus aureus [3] = test: Antibacterial activity against Staphylococcus aureus KCTC 503 after 24 hrs by two-fold serial dilution method; details: KCTC 503, 24 h
Escherichia coli = test: Antibacterial activity against Escherichia coli 1356 after 24 hrs by two-fold serial dilution method; details: Escherichia coli, 1356, 24 h
Staphylococcus aureus [4] = test: Antibacterial activity against methicillin-resistant Staphylococcus aureus CCARM 3167 after 24 hrs by two-fold serial dilution method; details: CCARM 3167, 24 h
Staphylococcus aureus [5] = test: Antibacterial activity against methicillin-resistant Staphylococcus aureus CCARM 3506 after 24 hrs by two-fold serial dilution method; details: CCARM 3506, 24 h
Staphylococcus aureus [6] = test: Antibacterial activity against quinolone-resistant Staphylococcus aureus CCARM 3505 after 24 hrs by two-fold serial dilution method; details: CCARM 3505, 24 h
Staphylococcus aureus [7] = test: Antibacterial activity against quinolone-resistant Staphylococcus aureus CCARM 3519 after 24 hrs by two-fold serial dilution method; details: CCARM 3519, 24 h
Staphylococcus aureus [8] = test: Ratio of MIC for norfloxacin to compound for methicillin-resistant Staphylococcus aureus CCARM 3167 after 24 hrs by two-fold serial dilution method
Staphylococcus aureus [9] = test: Ratio of MIC for norfloxacin to compound for methicillin-resistant Staphylococcus aureus CCARM 3506 after 24 hrs by two-fold serial dilution method
Staphylococcus aureus [10] = test: Ratio of MIC for oxacillin to compound for methicillin-resistant Staphylococcus aureus CCARM 3167 after 24 hrs by two-fold serial dilution method
Staphylococcus aureus [11] = test: Ratio of MIC for oxacillin to compound for methicillin-resistant Staphylococcus aureus CCARM 3506 after 24 hrs by two-fold serial dilution method
Staphylococcus aureus [12] = test: Ratio of MIC for norfloxacin to compound for quinolone-resistant Staphylococcus aureus CCARM 3505 after 24 hrs by two-fold serial dilution method
Staphylococcus aureus [13] = test: Ratio of MIC for norfloxacin to compound for quinolone-resistant Staphylococcus aureus CCARM 3519 after 24 hrs by two-fold serial dilution method
Staphylococcus aureus [14] = test: Ratio of MIC for norfloxacin to compound for Staphylococcus aureus KCTC 4220 after 24 hrs by two-fold serial dilution method
Staphylococcus aureus [15] = test: Ratio of MIC for norfloxacin to compound for Staphylococcus aureus KCTC 209 after 24 hrs by two-fold serial dilution method
Staphylococcus aureus [16] = test: Ratio of MIC for norfloxacin to compound for Staphylococcus aureus KCTC 503 after 24 hrs by two-fold serial dilution method

O=C(COc1ccc(/C=C2\SC(=S)N([C@@H](Cc3ccccc3)C(=O)O)C2=O)cc1)c1ccc(F)cc1
4 µg/mL: MIC (Staphylococcus aureus [1]) | MIC (Staphylococcus aureus [2]) | MIC (Staphylococcus aureus [3])
4: Ratio (Staphylococcus aureus [8]) | Ratio (Staphylococcus aureus [9])
1 µg/mL: MIC (Staphylococcus aureus [4]) | MIC (Staphylococcus aureus [5]) | MIC (Staphylococcus aureus [6]) | MIC (Staphylococcus aureus [7])
> 64 µg/mL: MIC (Escherichia coli)
64: Ratio (Staphylococcus aureus [10]) | Ratio (Staphylococcus aureus [11]) | Ratio (Staphylococcus aureus [12]) | Ratio (Staphylococcus aureus [13])

O=C(COc1ccc(/C=C2\SC(=S)N([C@@H](Cc3c[nH]c4ccccc34)C(=O)O)C2=O)cc1)c1cccc(Cl)c1
1 µg/mL: MIC (Staphylococcus aureus [4]) | MIC (Staphylococcus aureus [5]) | MIC (Staphylococcus aureus [6]) | MIC (Staphylococcus aureus [7])
64: Ratio (Staphylococcus aureus [10]) | Ratio (Staphylococcus aureus [11]) | Ratio (Staphylococcus aureus [12]) | Ratio (Staphylococcus aureus [13])
4: Ratio (Staphylococcus aureus [8]) | Ratio (Staphylococcus aureus [9])
8 µg/mL: MIC (Staphylococcus aureus [1])
> 64 µg/mL: MIC (Escherichia coli)
4 µg/mL: MIC (Staphylococcus aureus [2]) | MIC (Staphylococcus aureus [3])

O=C(COc1ccc(/C=C2\SC(=S)N([C@@H](Cc3c[nH]c4ccccc34)C(=O)O)C2=O)cc1)c1ccc(Cl)cc1
2: Ratio (Staphylococcus aureus [14]) | Ratio (Staphylococcus aureus [15]) | Ratio (Staphylococcus aureus [16])
64: Ratio (Staphylococcus aureus [10]) | Ratio (Staphylococcus aureus [11]) | Ratio (Staphylococcus aureus [12]) | Ratio (Staphylococcus aureus [13])
> 64 µg/mL: MIC (Escherichia coli)
4: Ratio (Staphylococcus aureus [8]) | Ratio (Staphylococcus aureus [9])
1 µg/mL: MIC (Staphylococcus aureus [1]) | MIC (Staphylococcus aureus [2]) | MIC (Staphylococcus aureus [3]) | MIC (Staphylococcus aureus [4]) | MIC (Staphylococcus aureus [5]) | MIC (Staphylococcus aureus [6]) | MIC (Staphylococcus aureus [7])

O=C(COc1ccc(/C=C2\SC(=S)N([C@@H](Cc3c[nH]c4ccccc34)C(=O)O)C2=O)cc1)c1ccc(F)cc1
> 64 µg/mL: MIC (Escherichia coli)
4 µg/mL: MIC (Staphylococcus aureus [1]) | MIC (Staphylococcus aureus [2]) | MIC (Staphylococcus aureus [3]) | MIC (Staphylococcus aureus [4]) | MIC (Staphylococcus aureus [5]) | MIC (Staphylococcus aureus [6]) | MIC (Staphylococcus aureus [7])

O=C(COc1ccc(/C=C2\SC(=S)N([C@@H](Cc3c[nH]c4ccccc34)C(=O)O)C2=O)cc1)c1ccccc1
8 µg/mL: MIC (Staphylococcus aureus [1]) | MIC (Staphylococcus aureus [2]) | MIC (Staphylococcus aureus [3]) | MIC (Staphylococcus aureus [4]) | MIC (Staphylococcus aureus [5]) | MIC (Staphylococcus aureus [6]) | MIC (Staphylococcus aureus [7])
> 64 µg/mL: MIC (Escherichia coli)

Cc1ccc(C(=O)COc2ccc(/C=C3\SC(=S)N([C@@H](Cc4c[nH]c5ccccc45)C(=O)O)C3=O)cc2)cc1
4 µg/mL: MIC (Staphylococcus aureus [2]) | MIC (Staphylococcus aureus [3]) | MIC (Staphylococcus aureus [4]) | MIC (Staphylococcus aureus [6])
8 µg/mL: MIC (Staphylococcus aureus [1]) | MIC (Staphylococcus aureus [5]) | MIC (Staphylococcus aureus [7])
> 64 µg/mL: MIC (Escherichia coli)

COc1cccc(C(=O)COc2ccc(/C=C3\SC(=S)N([C@@H](Cc4c[nH]c5ccccc45)C(=O)O)C3=O)cc2)c1
> 64 µg/mL: MIC (Escherichia coli)
8 µg/mL: MIC (Staphylococcus aureus [1]) | MIC (Staphylococcus aureus [2]) | MIC (Staphylococcus aureus [3]) | MIC (Staphylococcus aureus [4]) | MIC (Staphylococcus aureus [5]) | MIC (Staphylococcus aureus [6]) | MIC (Staphylococcus aureus [7])

COc1ccccc1C(=O)COc1ccc(/C=C2\SC(=S)N([C@@H](Cc3c[nH]c4ccccc34)C(=O)O)C2=O)cc1
8 µg/mL: MIC (Staphylococcus aureus [1]) | MIC (Staphylococcus aureus [2]) | MIC (Staphylococcus aureus [3]) | MIC (Staphylococcus aureus [4]) | MIC (Staphylococcus aureus [5]) | MIC (Staphylococcus aureus [6]) | MIC (Staphylococcus aureus [7])
> 64 µg/mL: MIC (Escherichia coli)

O=C(O)CN1C(=O)C(=Cc2ccc(/C=C/C(=O)c3ccc(Cl)cc3Cl)cc2)SC1=S
> 64 µg/mL: MIC (Escherichia coli)
2 µg/mL: MIC (Staphylococcus aureus [1]) | MIC (Staphylococcus aureus [2]) | MIC (Staphylococcus aureus [3]) | MIC (Staphylococcus aureus [4]) | MIC (Staphylococcus aureus [5]) | MIC (Staphylococcus aureus [6]) | MIC (Staphylococcus aureus [7])

CCn1cc(C(=O)O)c(=O)c2cc(F)c(N3CCNCC3)cc21 [NORFLOXACIN]
4 µg/mL: MIC (Staphylococcus aureus [5])
16 µg/mL: MIC (Escherichia coli)
2 µg/mL: MIC (Staphylococcus aureus [1]) | MIC (Staphylococcus aureus [2]) | MIC (Staphylococcus aureus [3])
> 64 µg/mL: MIC (Staphylococcus aureus [6]) | MIC (Staphylococcus aureus [7])
8 µg/mL: MIC (Staphylococcus aureus [4])

Cc1onc(-c2ccccc2)c1C(=O)N[C@@H]1C(=O)N2[C@@H]1SC(C)(C)[C@@H]2C(=O)O [OXACILLIN]
> 64 µg/mL: MIC (Escherichia coli) | MIC (Staphylococcus aureus [4]) | MIC (Staphylococcus aureus [5])
1 µg/mL: MIC (Staphylococcus aureus [1]) | MIC (Staphylococcus aureus [2]) | MIC (Staphylococcus aureus [3]) | MIC (Staphylococcus aureus [6]) | MIC (Staphylococcus aureus [7])
